According to patent US20030129629A1, “Methods and compositions for the identification, assessment, prevention, and therapy of human cancers” (Millennium Pharmaceuticals, Inc., priority 2000, published 2003):
Structures can show the parent of a compound that is named as a salt.

System: 60 cancer cell lines (NCI 60 cancer cell line series)
Experiment: NCI-DTP in vitro cancer screen, sulforhodamine B (SRB) growth inhibition, 48 hour exposure
Format: cell-based, human
Procedure, shortened: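 Potency is given as mean −log{GI50} from dose–response curves, manually binned into Low, Medium or High sensitivity. Sixty NCI-DTP tumour lines were treated 48 h with a duplicate, five-dose, ten-fold dilution series, and growth read by SRB staining of cell mass.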

In the case of `CC[C@]1(O)C[C@@H]2CN(CCc3c([nH]c4ccccc34)[C@@](C(=O)OC)(c3cc4c(cc3OC)N(C)[C@H]3[C@@](O)(C(=O)OC)[C@H](OC(C)=O)[C@]5(CC)C=CCN6CC[C@]43[C@@H]65)C2)C1` [Vinblastine sulfate], the “classification of cell line as Low(1), Medium(2), High(3) sensitivity to compound” value (“classification of cell line” below) (Breast HS-578T CL5006) is reported as 3, the “classification of cell line” value (Breast MCF7/ADRr CL5002) is reported as 1 and the “classification of cell line” value (Breast MDA-MB-231 CL5005) is reported as 2. The “classification of cell line” value (Breast MDA-MB-435 CL5011) was 3, the “classification of cell line” value (Breast MDA-N CL5012) was 3 and the “classification of cell line” value (CNS SF-268 CL12014) was 2. For the same compound, the “classification of cell line” value (CNS SF-295 CL12015) was 2, the “classification of cell line” value (CNS SF-539 CL12016) was 2 and the “classification of cell line” value (CNS SNB-19 CL12002) was 2. The “classification of cell line” value (CNS U251(I) CL12009) was 2, the “classification of cell line” value (Colon HCC-2998 CL4002) was 2 and the “classification of cell line” value (Colon HCT-15 CL4015) was 1. The “classification of cell line” value (Colon KM12 CL4017) was 2, the “classification of cell line” value (Colon SW-620 CL4009) was 2 and the “classification of cell line” value (Leukemia CCRF-CEM(I) CL7003) was 2. For the same compound, the “classification of cell line” value (Leukemia HL-60(I) CL7008) was 3, the “classification of cell line” value (Leukemia MOLT-4 CL7006) was 2 and the “classification of cell line” value (Melanoma M14 CL10014) was 2. The “classification of cell line” value (Melanoma MALME-3M CL10002) was 2, the “classification of cell line” value (Melanoma SK-MEL-2 CL10005) was 2 and the “classification of cell line” value (Melanoma SK-MEL-5 CL10007) was 3. The “classification of cell line” value (Melanoma SK-MEL-28 CL10008) was 2, the “classification of cell line” value (Melanoma UACC-62 CL10020) was 3 and the “classification of cell line” value (NSCLC A549/ATCC CL1004) was 2. For the same compound, the “classification of cell line” value (NSCLC EKVX CL1008) was 1, the “classification of cell line” value (NSCLC HOP-62 CL1026) was 2 and the “classification of cell line” value (NSCLC HOP-92 CL1029) was 2. The “sensitivity classification Low(1)/Medium(2)/High(3)” value (NSCLC NCI-H23(I) CL1001) was 2, the “classification of cell line” value (NSCLC NCI-H226 CL1013) was 2 and the “sensitivity classification Low(1)/Medium(2)/High(3)” value (NSCLC NCI-H332M CL1017) was 2. For the same compound, the “sensitivity classification Low(1)/Medium(2)/High(3)” value (NSCLC NCI-H460 CL1021) was 2, the “sensitivity classification Low(1)/Medium(2)/High(3)” value (NSCLC NCI-H522 CL1003) was 3 and the “sensitivity classification Low(1)/Medium(2)/High(3)” value (Ovarian IGROV1 CL6010) was 2. For the same compound, the “sensitivity classification Low(1)/Medium(2)/High(3)” value (Ovarian OVCAR-3 CL6001) was 3, the “sensitivity classification Low(1)/Medium(2)/High(3)” value (Ovarian OVCAR-8 CL6005) was 2 and the “sensitivity classification Low(1)/Medium(2)/High(3)” value (Ovarian SK-OV-3 CL6011) was 2. The “sensitivity classification Low(1)/Medium(2)/High(3)” value (Renal 786-0 CL9018) was 2, the “sensitivity classification Low(1)/Medium(2)/High(3)” value (Renal CAKI-1 CL9015) was 2 and the “sensitivity classification Low(1)/Medium(2)/High(3)” value (Renal RXF-393 CL9016) was 2. For the same compound, the “sensitivity classification Low(1)/Medium(2)/High(3)” value (Renal SN12C CL9008) was 2, the “sensitivity classification Low(1)/Medium(2)/High(3)” value (Renal TK10 CL9024) was 1 and the “sensitivity classification Low(1)/Medium(2)/High(3)” value (Renal UO-31 CL9004) was 1.

With `CC[C@]1(O)C[C@H]2CN(CCc3c([nH]c4ccccc34)[C@@](C(=O)OC)(c3cc4c(cc3OC)N(C=O)[C@H]3[C@@](O)(C(=O)OC)[C@H](OC(C)=O)[C@]5(CC)C=CCN6CC[C@]43[C@@H]65)C2)C1` [Vincristine sulfate] the “classification of cell line” value (Breast BT-549 CL5013) was 1, the “classification of cell line” value (Breast HS-578T CL5006) was 2 and the “classification of cell line” value (Breast MCF7(I) CL5001) was 2. For the same compound, the “classification of cell line” value (Breast MCF7/ADRr CL5002) was 2, the “classification of cell line” value (Breast MDA-MB-231 CL5005) was 2 and the “classification of cell line” value (Breast MDA-MB-435 CL5011) was 2. For the same compound, the “classification of cell line” value (Breast MDA-N CL5012) was 2, the “classification of cell line” value (Breast T-47D CL5014) was 1 and the “classification of cell line” value (CNS SF-268 CL12014) was 2. For the same compound, the “classification of cell line” value (CNS SF-295 CL12015) was 3, the “classification of cell line” value (CNS SF-539 CL12016) was 3 and the “classification of cell line” value (CNS SNB-19 CL12002) was 2. The “classification of cell line” value (CNS SNB-75(I) CL12005) was 2, the “classification of cell line” value (CNS U251(I) CL12009) was 2 and the “classification of cell line” value (Colon COLO-250 CL4010) was 2. For the same compound, the “classification of cell line” value (Colon HCC-2998 CL4002) was 2, the “classification of cell line” value (Colon HCT-15 CL4015) was 2 and the “classification of cell line” value (Colon HCT-116 CL4003) was 2. For the same compound, the “classification of cell line” value (Colon HT29(I) CL4001) was 3, the “classification of cell line” value (Colon KM12 CL4017) was 3 and the “classification of cell line” value (Colon SW-620 CL4009) was 3. The “classification of cell line” value (Leukemia CCRF-CEM(I) CL7003) was 3, the “classification of cell line” value (Leukemia HL-60(I) CL7008) was 3 and the “classification of cell line” value (Leukemia K562(I) CL7005) was 3. For the same compound, the “classification of cell line” value (Leukemia MOLT-4 CL7006) was 3, the “classification of cell line” value (Leukemia RPMI-8226(I) CL7010) was 3 and the “classification of cell line” value (Leukemia SR CL7019) was 3. The “classification of cell line” value (Melanoma LOX IMVI CL10001) was 3, the “classification of cell line” value (Melanoma M14 CL10014) was 2 and the “classification of cell line” value (Melanoma MALME-3M CL10002) was 2. For the same compound, the “classification of cell line” value (Melanoma SK-MEL-2 CL10005) was 2, the “classification of cell line” value (Melanoma SK-MEL-5 CL10007) was 3 and the “classification of cell line” value (Melanoma SK-MEL-28 CL10008) was 1. The “classification of cell line” value (Melanoma UACC-62 CL10020) was 2, the “classification of cell line” value (Melanoma UACC-257 CL10021) was 2 and the “classification of cell line” value (NSCLC A549/ATCC CL1004) was 2. The “classification of cell line” value (NSCLC EKVX CL1008) was 1, the “classification of cell line” value (NSCLC HOP-62 CL1026) was 2 and the “classification of cell line” value (NSCLC HOP-92 CL1029) was 2. The “sensitivity classification Low(1)/Medium(2)/High(3)” value (NSCLC NCI-H23(I) CL1001) was 3, the “classification of cell line” value (NSCLC NCI-H226 CL1013) was 2 and the “sensitivity classification Low(1)/Medium(2)/High(3)” value (NSCLC NCI-H332M CL1017) was 2. The “sensitivity classification Low(1)/Medium(2)/High(3)” value (NSCLC NCI-H460 CL1021) was 3, the “sensitivity classification Low(1)/Medium(2)/High(3)” value (NSCLC NCI-H522 CL1003) was 3 and the “sensitivity classification Low(1)/Medium(2)/High(3)” value (Ovarian IGROV1 CL6010) was 3. For the same compound, the “sensitivity classification Low(1)/Medium(2)/High(3)” value (Ovarian OVCAR-3 CL6001) was 3, the “sensitivity classification Low(1)/Medium(2)/High(3)” value (Ovarian OVCAR-4 CL6002) was 2 and the “sensitivity classification Low(1)/Medium(2)/High(3)” value (Ovarian OVCAR-5 CL6003) was 1. The “sensitivity classification Low(1)/Medium(2)/High(3)” value (Ovarian OVCAR-8 CL6005) was 3, the “sensitivity classification Low(1)/Medium(2)/High(3)” value (Ovarian SK-OV-3 CL6011) was 2 and the “sensitivity classification Low(1)/Medium(2)/High(3)” value (Prostate DU-145 CL11003) was 2. For the same compound, the “sensitivity classification Low(1)/Medium(2)/High(3)” value (Prostate PC-3(I) CL11001) was 2, the “sensitivity classification Low(1)/Medium(2)/High(3)” value (Renal 786-0 CL9018) was 2 and the “sensitivity classification Low(1)/Medium(2)/High(3)” value (Renal A498 CL9013) was 3. For the same compound, the “sensitivity classification Low(1)/Medium(2)/High(3)” value (Renal ACHN CL9023) was 2, the “sensitivity classification Low(1)/Medium(2)/High(3)” value (Renal CAKI-1 CL9015) was 2 and the “sensitivity classification Low(1)/Medium(2)/High(3)” value (Renal RXF-393 CL9016) was 2. For the same compound, the “sensitivity classification Low(1)/Medium(2)/High(3)” value (Renal SN12C CL9008) was 2, the “sensitivity classification Low(1)/Medium(2)/High(3)” value (Renal TK10 CL9024) was 1 and the “sensitivity classification Low(1)/Medium(2)/High(3)” value (Renal UO-31 CL9004) was 1.
